From patent US7504519B2, “Derivatives of pyrazoline, procedure for obtaining them and use thereof as therapeutic agents” (Laboratorios Del Dr. Esteve, S.A., priority 2004, dated 2009)
Counter-ions that a name gives are not always drawn.

Legend:
[1] = tested on: rats; assay: Analgesia test on rats (carrageenan subplantar injection, thermal stimulus, Hargreaves method); assay type: in vivo; conditions: analgesic activity, rat, 2.5 mg/kg i.v., compound given 3 h after carrageenan; for % activity At 30 min.: 30 min after administration; for % activity At 120 min.: 120 min after administration
Method: Biological Activity Analgesia Test on Rats
The analgesic activity of the compounds of the invention is tested as described in the publication by K. Hargreaves et al., Pain, 32. 77-88. (1988).
Briefly, the rats are transferred to the experimentation laboratory, where they remain in groups of five in Makrolon cages with barred floors to prevent coprophagy. At the start of the experiment, water and food were removed and animals weighed and labelled appropriately.
Each rat receives by subplantar injection 0.1 ml of sterile saline solution in the rear left leg, followed by 0.1 ml 2% (weight/volume) carrageenan suspension in sterile saline solution in the rear right leg.
Three hours following the subplantar injections of carrageenan and vehicle, each rat was intravenously administered with compounds to be tested, dissolved in sterile saline serum, at a dose of 1 ml per kg of body weight. Then after administration of compounds, analgesic activity values were readed. For this purpose, rats were transferred to the methacrylate chambers of an analgesimeter with a glass floor. Once the period of acclimatisation in the chambers had elapsed (i.e., after 5 minutes), an infrared radiation lamp capable of producing thermal stimulation was placed under the rats' legs. Readings of analgesic activity were taken at 15, 30, 60 and 120 minutes following administration of the products or their vehicle.
The thermal stimulus, calibrated beforehand to 10 amperes, is applied to each of the rear legs at intervals of at least 1 minute. The response of the rats to the pain consists in raising the leg, thus avoiding contact with the floor.

| Compound | melting point [°C] | % activity At 30 min. [1] [%] | % activity At 120 min. [1] [%] |
| --- | --- | --- | --- |
| O=C(NS(=O)(=O)c1ccc(N2N=C(C(F)(F)F)CC2c2ccccc2)cc1)c1ccc(C(F)(F)F)cc1 (stereo not shown) (as salt: sodium) [Compound 22, N-(4-Trifluoromethylbenzoyl)-4-(4,5-dihydro-5-phenyl-3-trifluoromethyl-pyrazole-1-yl)-benzenesulphonamide] | > 280 |  |  |
| CCC(=O)NS(=O)(=O)c1ccc(C2CC(C(F)(F)F)=NN2c2ccccc2)cc1 (stereo not shown) (as salt: sodium) [Compound 32, N-Propionyl-4-(4,5-dihydro-1-phenyl-3-trifluoromethyl-1H-pyrazole-5-yl)benzenesulphonamide] | > 280 |  |  |
| CCCCOC(=O)NS(=O)(=O)c1ccc(C2CC(C(F)(F)F)=NN2c2ccccc2)cc1 (stereo not shown) (as salt: sodium) [Compound 37, N-Butoxycarbonyl-4-(4,5-dihydro-1-phenyl-3-trifluoromethyl-1H-pyrazole-5-yl)benzenesulphonamide] | 223 to 230 |  |  |
| O=C(CO)NS(=O)(=O)c1ccc(N2N=C(C(F)(F)F)CC2c2ccccc2)cc1 (stereo not shown) [Compound 3, N-(2-Hydroxyacetyl)-4-(4,5-dihydro-5-phenyl-3-trifluoromethyl-pyrazole-1-yl)-benzenesulphonamide] |  | 41 | 40 |
| O=C(NS(=O)(=O)c1ccc(N2N=C(C(F)(F)F)CC2c2ccccc2)cc1)c1ccc(C(F)(F)F)cc1 (stereo not shown) [Compound 22, N-(4-Trifluoromethylbenzoyl)-4-(4,5-dihydro-5-phenyl-3-trifluoromethyl-pyrazole-1-yl)-benzenesulphonamide] |  | 72 | 76 |
| COC(=O)c1ccc(NS(=O)(=O)c2ccc(N3N=C(C(F)(F)F)CC3c3ccccc3)cc2)cc1 (stereo not shown) [Compound 25, 4-[4-(4,5-dihydro-5-phenyl-3-trifluoromethyl-pyrazole-1-yl)-benzenesulphonylamine] benzoic acid methylic ester] |  | 67 | 66 |
| COC(=O)NS(=O)(=O)c1ccc(C2CC(C(F)(F)F)=NN2c2ccccc2)cc1 (stereo not shown) [Compound 31, N-Methoxycarbonyl-4-(4,5-dihydro-1-phenyl-3-trifluoromethyl-1H-pyrazole-5-yl)benzenesulphonamide] |  | 76 | 49 |
| CCC(=O)NS(=O)(=O)c1ccc(C2CC(C(F)(F)F)=NN2c2ccccc2)cc1 (stereo not shown) [Compound 32, N-Propionyl-4-(4,5-dihydro-1-phenyl-3-trifluoromethyl-1H-pyrazole-5-yl)benzenesulphonamide] |  | 72 | 51 |
| CCCCOC(=O)NS(=O)(=O)c1ccc(C2CC(C(F)(F)F)=NN2c2ccccc2)cc1 (stereo not shown) [Compound 37, N-Butoxycarbonyl-4-(4,5-dihydro-1-phenyl-3-trifluoromethyl-1H-pyrazole-5-yl)benzenesulphonamide] |  | 68 | 75 |
| N-(4-Trifluoromethyl)benzoil-4-(4,5-dihydro-1-phenyl-3-trifluoromethyl-1H-pyrazole-5-yl)benzenesulphonamide [Compound 39] |  | 92 | 57 |
| N-Ethyloxicarbonyl-4-(4,5-dihydro-5-phenyl-3-trifluoromethyl-pyrazole-1-yl)-benzenesulphonamide [Compound 4] |  | 78 | 48 |
